One series in a line: physchem. As to conditions: buffer, pH 7.4.
For the next series, the system named is Plasmodium falciparum. Kind of series: microbe, parasite or virus in culture. As to conditions: NF54, 72 h.

In brackets after ≈: the same amount, converted by molar mass.

`Cc1noc(-c2ccc(CCN3CCC(Nc4nc5cc(C#N)ccc5n4C)CC3)cc2)n1`: in “physchem”, the kinetic solubility at 2 h was determined as 80 µM (≈ 35.3 µg/mL). This compound registered an IC50 with Plasmodium falciparum of 0.611 µM.
Compound `Cn1c(NC2CCN(CCc3ccc(C(=O)N4CCN5CCCC5C4)cc3)CC2)nc2ccccc21` (configuration not stated) returned a solubility (kinetic) at 2 h in the series “physchem” of 60 µM (≈ 29.2 µg/mL). This compound also displayed an IC50 in the series with Plasmodium falciparum of 1.28 µM.
In “physchem”, `COC(=O)c1ccc(CCN2CCC(Nc3nc4ccccc4n3C)CC2)cc1` displayed a kinetic solubility at 2 h of 120 µM (≈ 47.1 µg/mL). Besides, in the series with Plasmodium falciparum, 1.45 µM corresponded to half-maximal inhibition (IC50).
`Cc1noc(-c2ccc(CCN3CCC(Nc4nc5cc(C(F)(F)F)ccc5n4C)CC3)cc2)n1` had a solubility (kinetic) at 2 h in the series “physchem” of 40 µM (≈ 19.4 µg/mL). In the series on Plasmodium falciparum, this compound returned an IC50 of 0.422 µM.
In the series “physchem”, `Cn1c(NC2CCN(CCc3ccc(-c4nc(C5CC5)no4)cc3)CC2)nc2ccccc21` gave a kinetic solubility at 2 h of 60 µM (≈ 26.6 µg/mL). For the same compound, the IC50 in the series on Plasmodium falciparum came out at 0.484 µM.
For the compound `Cc1noc(-c2ccc(CCN3CCC(Nc4nc5cc(C)c(C)cc5n4C)CC3)cc2)n1`, the kinetic solubility at 2 h in “physchem” amounted to 60 µM (≈ 26.7 µg/mL). For the same compound, the IC50 in the series with Plasmodium falciparum is 0.163 µM.
`CSCc1noc(-c2ccc(CCN3CCC(Nc4nc5ccccc5n4C)CC3)cc2)n1`: the kinetic solubility at 2 h in the series “physchem” was 80 µM (≈ 37 µg/mL). Further, half-maximal inhibition in the series on Plasmodium falciparum (IC50) required 0.383 µM.
For the compound `Cc1noc(-c2ccc(CCN3CCC(Nc4nc5ccccc5n4Cc4cccnc4)CC3)cc2)n1`, the IC50 in the series with Plasmodium falciparum was determined as 0.304 µM.
With `COc1ccc2c(c1)nc(NC1CCN(CCc3ccc(-c4nc(C)no4)cc3)CC1)n2C`, the solubility (kinetic) at 2 h in “physchem” was found to be 80 µM (≈ 35.7 µg/mL). The compound also returned an IC50 with Plasmodium falciparum of 0.309 µM.
For `Cc1noc(-c2ccc(CCN3CC4(CCN(c5nc6ccccc6n5Cc5ccc(C#N)cc5)C4)C3)cc2)n1`, the solubility (kinetic) at 2 h in the series “physchem” was determined as 40 µM (≈ 21.2 µg/mL). This compound also registered an IC50 in the series on Plasmodium falciparum of 0.446 µM.
`Cc1nnc(-c2ccc(CCN3CCC(Nc4nc5ccccc5n4Cc4ccc(C#N)cc4)CC3)cc2)o1` returned a kinetic solubility at 2 h in the series “physchem” of 20 µM (≈ 10.4 µg/mL). In addition, in the series with Plasmodium falciparum, the IC50 came out at 0.519 µM.
In the case of `Cc1noc(-c2ccc(CCN3CCC(Nc4nc5cc(F)c(F)cc5n4C)CC3)cc2)n1`, the solubility (kinetic) at 2 h in the series “physchem” stood at 80 µM (≈ 36.2 µg/mL). The same compound had an IC50 in the series with Plasmodium falciparum of 1.16 µM.
For the compound `Cc1noc(-c2ccc(CCN3CC[C@@H](Nc4nc5ccccc5n4Cc4ccc(C#N)cc4)C3)cc2)n1`, in the series with Plasmodium falciparum, the IC50 worked out at 0.448 µM.
Take `Cn1c(NC2CCN(CCc3ccc(C(=O)NCCO)cc3)CC2)nc2ccccc21`: the kinetic solubility at 2 h in the series “physchem” amounted to 120 µM (≈ 50.6 µg/mL). This compound also registered a half-inhibitory concentration (IC50) with Plasmodium falciparum of 4.17 µM.
With `Cc1noc(-c2ccc(CCN3CCC(Nc4nc5cc(C(=O)O)ccc5n4C)CC3)cc2)n1`, the kinetic solubility at 2 h in “physchem” is 160 µM (≈ 73.7 µg/mL). The IC50 in the series on Plasmodium falciparum is more than 6 µM.
Compound `Cc1noc(-c2ccc(CCN3CC[C@H](Nc4nc5ccccc5n4Cc4ccc(C#N)cc4)C3)cc2)n1` came in with an IC50 in the series with Plasmodium falciparum of 0.515 µM.
Turning to `Cc1noc(-c2ccc(CCN3CCC(Nc4nc5cc(S(C)(=O)=O)ccc5n4C)CC3)cc2)n1`, the kinetic solubility at 2 h in “physchem” is 60 µM (≈ 29.7 µg/mL). The compound also yielded an IC50 in the series on Plasmodium falciparum of 4.65 µM.
`C=CCNC(=O)c1ccc(CCN2CCC(Nc3nc4ccccc4n3C)CC2)cc1` came in with a kinetic solubility at 2 h in “physchem” of 80 µM (≈ 33.4 µg/mL). The same compound had an IC50 in the series with Plasmodium falciparum of 2.61 µM.
Take `Cn1c(NC2CCN(CCc3ccc(C(=O)NCCN)cc3)CC2)nc2ccccc21`: in the series “physchem”, the solubility (kinetic) at 2 h is 100 µM (≈ 42.1 µg/mL). In addition, the IC50 in the series on Plasmodium falciparum is more than 6 µM.
Take `Cc1noc(-c2ccc(CCN3CCC(Nc4nc5ccccc5n4C(C)C)CC3)cc2)n1`: the kinetic solubility at 2 h in the series “physchem” came to 20 µM (≈ 8.89 µg/mL). In the series with Plasmodium falciparum, this compound came in with a half-maximal inhibitory concentration (IC50) of 0.702 µM.
In “physchem”, `Cn1c(NC2CCN(CCc3ccc(C(=O)N4CCOCC4)cc3)CC2)nc2ccccc21` returned a solubility (kinetic) at 2 h of 80 µM (≈ 35.8 µg/mL). Moreover, in the series with Plasmodium falciparum, the IC50 was more than 6 µM.
On the same counts, the results for `Cn1c(NC2CCN(CCc3ccc(C(=O)N4CCC(C)(O)C4)cc3)CC2)nc2ccccc21` (configuration not stated) are 80 µM (≈ 36.9 µg/mL) and more than 6 µM.
The corresponding values for `CC(C)c1noc(-c2ccc(CCN3CCC(Nc4nc5ccccc5n4C)CC3)cc2)n1` are 60 µM (≈ 26.7 µg/mL) and 0.492 µM.
Regarding `Cc1noc(-c2ccc(CCN3CCC(Nc4nc5cc(Cl)c(Cl)cc5n4C)CC3)cc2)n1`, the kinetic solubility at 2 h in the series “physchem” was 80 µM (≈ 38.8 µg/mL). The compound further registered an IC50 in the series with Plasmodium falciparum of 0.514 µM.
`Cn1c(NC2CCN(CCc3ccc(-c4nc(CO)no4)cc3)CC2)nc2ccccc21` returned a solubility (kinetic) at 2 h in the series “physchem” of 100 µM (≈ 43.3 µg/mL). Also, the IC50 with Plasmodium falciparum worked out at 0.567 µM.

As usually defined, the kinetic solubility is the concentration staying in solution when a stock, usually in DMSO, is diluted into the medium. What is called IC50 is the concentration that inhibits the measured activity by half. Read a low IC50 as inhibition by little substance.

The record behind these values is ChEMBL document CHEMBL5236628 (J Med Chem, 2022).
